Our source for the IC50 values is US8748610B2, “Compounds as TRPV1 antagonists, pharmaceutical compositions and medical uses thereof” (FL Therapeutics LLC, priority 2009, dated 2014).

The target of this assay is T1, recombinant human TRPV1 (Homo sapiens, UniProt Q8NER1).
T1 construct: expressed in transfected cells
T1 sequence (Q8NER1 whole entry): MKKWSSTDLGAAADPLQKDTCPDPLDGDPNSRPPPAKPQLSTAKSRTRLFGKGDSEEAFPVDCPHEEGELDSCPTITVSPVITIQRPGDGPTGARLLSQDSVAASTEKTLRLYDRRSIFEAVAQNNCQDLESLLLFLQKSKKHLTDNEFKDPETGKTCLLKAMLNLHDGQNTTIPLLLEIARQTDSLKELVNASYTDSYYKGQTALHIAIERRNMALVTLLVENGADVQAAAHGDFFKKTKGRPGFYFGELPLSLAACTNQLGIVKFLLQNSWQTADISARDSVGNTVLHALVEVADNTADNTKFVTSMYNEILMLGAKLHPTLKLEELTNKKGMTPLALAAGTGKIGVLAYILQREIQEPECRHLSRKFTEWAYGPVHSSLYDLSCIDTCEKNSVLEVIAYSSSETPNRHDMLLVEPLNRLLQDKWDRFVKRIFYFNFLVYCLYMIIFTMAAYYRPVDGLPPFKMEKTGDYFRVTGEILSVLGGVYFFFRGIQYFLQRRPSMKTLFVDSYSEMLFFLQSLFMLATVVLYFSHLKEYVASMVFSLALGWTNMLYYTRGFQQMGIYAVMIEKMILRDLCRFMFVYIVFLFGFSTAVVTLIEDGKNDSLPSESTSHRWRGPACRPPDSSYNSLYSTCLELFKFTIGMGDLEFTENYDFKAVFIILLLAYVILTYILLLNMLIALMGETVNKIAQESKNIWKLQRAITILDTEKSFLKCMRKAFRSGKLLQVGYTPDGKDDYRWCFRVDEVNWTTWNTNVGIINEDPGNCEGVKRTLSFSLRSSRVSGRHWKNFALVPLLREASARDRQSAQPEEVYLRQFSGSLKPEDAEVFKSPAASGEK
Nature of the assay: FLIPR based Ca2+ influx assay, capsaicin-induced, TRPV1.CHO cells. Particulars: CHO-K1 cells stably expressing recombinant human TRPV1; 30 nM capsaicin (~EC80); 15 mins pre-incubation. It counts as cell-based. As for the experimental part: The functional activity of compounds at the TRPV1 receptor was determined using a Molecular Devices FLIPR based Ca^2+ influx assay, employing a Ca^2+ sensitive fluorescent dye and a CHO-K1 cell line, stably expressing recombinant human TRPV1, under the control of a CMV promoter (TRPV1.CHO cells). TRPV1.CHO cells were routinely maintained at 37° C./5% CO2 in normal growth medium (Dulbecco's Modified Eagles medium (DMEM/NUT.MDC.F-12 GLUTAMAX-1 (1:1) with PYRIDOXINE) supplemented with 10% fetalclone II serum and 0.4 mg/ml G418, (all Invitrogen).
Test compounds were prepared as 10 mM stock solution in DMSO and tested for activity over several log units (ranging […]-100 pM). Serial dilutions (half-log dose response) were prepared in 100% DMSO with further dilutions in aqueous assay buffer to final assay concentration for IC50 determination (1% DMSO final).
TRPV1.CHO cells were seeded (10,000 cells/well) in a 384 clear bottom plate (Costar) 24 hr prior to assay. […]
TRPV1 responses were assessed following addition, in the FLIPR, of 12.5 μl/well of test compound (to give appropriate final concentration) for 15 mins time followed by 12.5 μl/well of 120 nM capsaicin (agonist) in TRPV1 buffer to give a final concentration of capsaicin of 30 nM (˜EC80 concentration). Ca^2+ influx was assessed by measurement of fluorescence. Baseline fluorescence responses were measured for approximately 10 s prior to addition of capsaicin. Increases in fluorescence emission following capsaicin addition were measured for a further 110 s. Responses were recorded as Max-Min fluorescence. Antagonist induced inhibition of TRPV1 mediated increases in intracellular [Ca^2+] was assessed relative to wells on the same plate to which capsaicin was added in the absence of antagonist (i.e pre-incubation in buffer alone).
In general, IC50 refers to the concentration at which inhibition is half-maximal. In the case of `C[Si](C)(C)c1ccc(NC(=O)C2=CCN(c3ncccc3Cl)CC2)cc1` [A-05, 1-(3-chloropyridin-2-yl)-N-(4-(trimethylsilyl)phenyl)-1,2,3,6-tetrahydropyridine-4-carboxamide], the IC50 is 2.3 nM. Regarding `C[Si](C)(C)c1ccc(NC(=O)N2CCN(c3ncccc3Cl)CC2)cc1` [A-01, 4(3-chloropyridin-2-yl)-N-(4-(trimethylsilyl)phenyl)piperazine-1-carboxamide], the IC50 was 0.5 nM.

In the case of `C[Si](C)(C)c1ccc(NC(=O)c2ccc(-c3ncccc3C(F)(F)F)cc2)cc1` [A-04, 4-(3-(trifluoromethyl)pyridin-2-yl)-N-(4-(trimethylsilyl)phenyl)benzamide], the IC50 was determined as 5.4 nM.
